Like-named read-outs stand apart in the source and are kept apart here.
Experiments:
[1] = Metabolic stability assay in rat liver microsomes (RLM); format: in vitro ADME; settings: 1 μM
Outline: (§1)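 In Protocol 1, compound was 1 μM final with NADPH at 37 °C, sampled at 0–45 min. In Protocol 2, 1.5 μM compound with 0.75 mg/mL microsomes (pre-NADPH mix) in 0.1 M potassium phosphate, 1 mM EDTA, pH 7.4 was pre-incubated 10 min, then NADPH started the reaction. Both: LC-MS/MS % remaining versus time 0, half-life from single-phase exponential fit.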

[2] = molecular target: CYP1A2 (Homo sapiens (Human), UniProt P05177); experiment: Cytochrome P450 inhibition in human liver microsomes, CYP1A2
[3] = Human plasma stability; format: in vitro ADME
Outline: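 Protocol 1: 1 μM compound in pH 7.4 sodium-heparin human plasma at 37° C, sampled 0–120 min. Protocol 2: 5 μM in plasma at pH 7.4–8.0, 37° C, duplicates, sampled 0–120 min. Both: LC-MS/MS percent remaining versus t0; half-life from single-phase exponential decay.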

[4] = molecular target: rat brain nicotinic receptor (α7 NAChR) (Rattus norvegicus (Rat), UniProt Q05941); format: binding
[5] = Metabolic stability assay in human liver microsomes (HLM); format: in vitro ADME; settings: 1 μM
Outline: as §1

[6] = molecular target: T1, CYP2C19 (Homo sapiens (Human), UniProt P33261); settings: microsomes
[7] = molecular target: CYP2D6 (Homo sapiens (Human), UniProt P10635); experiment: Cytochrome P450 inhibition in human liver microsomes, CYP2D6
[8] = molecular target: T1, CYP2C19; experiment: Cytochrome P450 inhibition in human liver microsomes, CYP2C19
[9] = molecular target: CYP3A4 (Homo sapiens (Human), UniProt P08684); experiment: Cytochrome P450 inhibition in human liver microsomes, CYP3A4
[10] = molecular target: CYP2C9 (Homo sapiens (Human), UniProt P11712); experiment: Cytochrome P450 inhibition in human liver microsomes, CYP2C9
[11] = human, plasma, 2 h, 1 μM, pH 7.4
[12] = Protocol No. 1, rat liver microsomes
[13] = Protocol No. 2, plasma, 5 μM, 37° C.
[14] = Protocol No. 1, human liver microsomes
[15] = read-out: 2C19 IC50, Protocol 1
[16] = read-out: 3A4 IC50 (Midazolam), substrate midazolam, Protocol 1
[17] = read-out: 3A4 IC50 (Testosterone), substrate testosterone, Protocol 1
[18] = Protocol No. 2, rat liver microsomes
[19] = pH 7.4, Protocol No. 1, human plasma, 1 μM, 37° C., read-out: T1/2
[20] = Protocol No. 2, human liver microsomes
[21] = read-out: 2C19 IC50, Protocol 2
[22] = read-out: 3A4 IC50 (Midazolam), substrate midazolam, Protocol 2

T1 sequence (P33261 whole entry): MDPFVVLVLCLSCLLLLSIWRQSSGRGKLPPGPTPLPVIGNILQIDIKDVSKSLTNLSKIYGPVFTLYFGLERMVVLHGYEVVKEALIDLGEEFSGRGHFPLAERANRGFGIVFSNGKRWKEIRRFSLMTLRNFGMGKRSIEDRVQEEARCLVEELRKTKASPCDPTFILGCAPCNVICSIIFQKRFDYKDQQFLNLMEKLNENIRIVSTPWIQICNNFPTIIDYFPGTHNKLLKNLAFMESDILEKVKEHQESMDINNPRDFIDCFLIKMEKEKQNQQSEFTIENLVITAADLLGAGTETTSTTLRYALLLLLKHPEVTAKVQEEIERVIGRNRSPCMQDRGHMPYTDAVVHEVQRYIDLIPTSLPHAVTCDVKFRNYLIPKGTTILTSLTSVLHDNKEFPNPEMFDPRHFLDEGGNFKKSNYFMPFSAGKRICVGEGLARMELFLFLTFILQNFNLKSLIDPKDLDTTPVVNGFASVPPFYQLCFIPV
Chain of CYP1A2 (P05177 whole entry): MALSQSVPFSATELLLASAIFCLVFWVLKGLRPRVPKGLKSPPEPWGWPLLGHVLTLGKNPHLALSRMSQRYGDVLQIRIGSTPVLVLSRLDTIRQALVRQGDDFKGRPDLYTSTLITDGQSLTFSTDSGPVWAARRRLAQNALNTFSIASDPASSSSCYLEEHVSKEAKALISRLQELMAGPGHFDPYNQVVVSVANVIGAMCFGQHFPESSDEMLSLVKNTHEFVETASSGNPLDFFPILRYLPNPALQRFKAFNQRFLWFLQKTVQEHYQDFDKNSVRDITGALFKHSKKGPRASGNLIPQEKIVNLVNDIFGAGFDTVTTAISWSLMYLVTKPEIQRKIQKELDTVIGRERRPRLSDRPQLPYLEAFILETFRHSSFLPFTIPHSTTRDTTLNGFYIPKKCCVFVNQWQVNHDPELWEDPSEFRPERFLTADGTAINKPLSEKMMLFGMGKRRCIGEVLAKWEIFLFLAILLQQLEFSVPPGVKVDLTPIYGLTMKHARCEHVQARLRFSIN
Chain of CYP2C9 (P11712 whole entry): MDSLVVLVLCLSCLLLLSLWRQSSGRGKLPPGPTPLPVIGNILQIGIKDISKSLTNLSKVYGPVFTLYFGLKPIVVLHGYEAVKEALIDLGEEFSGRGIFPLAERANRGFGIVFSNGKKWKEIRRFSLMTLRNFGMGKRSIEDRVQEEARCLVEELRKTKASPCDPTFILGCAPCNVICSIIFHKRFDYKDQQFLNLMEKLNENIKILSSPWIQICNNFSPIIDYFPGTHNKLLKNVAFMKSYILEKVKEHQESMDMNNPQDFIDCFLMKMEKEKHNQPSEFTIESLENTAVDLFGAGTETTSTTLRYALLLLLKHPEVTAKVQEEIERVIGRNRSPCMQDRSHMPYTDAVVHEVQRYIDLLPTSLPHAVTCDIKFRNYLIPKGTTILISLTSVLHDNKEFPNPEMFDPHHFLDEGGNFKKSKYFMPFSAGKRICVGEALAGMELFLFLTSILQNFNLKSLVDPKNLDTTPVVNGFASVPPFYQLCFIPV
Chain of rat brain nicotinic receptor (α7 NAChR) (Q05941 23-502 limits assumed): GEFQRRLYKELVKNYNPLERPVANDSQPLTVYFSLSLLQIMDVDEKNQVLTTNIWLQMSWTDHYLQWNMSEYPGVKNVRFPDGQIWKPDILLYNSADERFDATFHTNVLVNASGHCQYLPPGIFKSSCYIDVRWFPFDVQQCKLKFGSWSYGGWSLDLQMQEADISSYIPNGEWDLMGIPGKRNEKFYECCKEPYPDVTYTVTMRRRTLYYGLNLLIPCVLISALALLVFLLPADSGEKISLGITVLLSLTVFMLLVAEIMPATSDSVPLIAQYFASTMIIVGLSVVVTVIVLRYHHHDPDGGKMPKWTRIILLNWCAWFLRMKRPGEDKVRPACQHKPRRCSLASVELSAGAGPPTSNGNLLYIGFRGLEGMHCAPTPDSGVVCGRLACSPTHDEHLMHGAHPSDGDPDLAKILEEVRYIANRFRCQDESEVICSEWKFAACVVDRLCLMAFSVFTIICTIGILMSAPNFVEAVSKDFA
Chain of CYP3A4 (P08684 whole entry): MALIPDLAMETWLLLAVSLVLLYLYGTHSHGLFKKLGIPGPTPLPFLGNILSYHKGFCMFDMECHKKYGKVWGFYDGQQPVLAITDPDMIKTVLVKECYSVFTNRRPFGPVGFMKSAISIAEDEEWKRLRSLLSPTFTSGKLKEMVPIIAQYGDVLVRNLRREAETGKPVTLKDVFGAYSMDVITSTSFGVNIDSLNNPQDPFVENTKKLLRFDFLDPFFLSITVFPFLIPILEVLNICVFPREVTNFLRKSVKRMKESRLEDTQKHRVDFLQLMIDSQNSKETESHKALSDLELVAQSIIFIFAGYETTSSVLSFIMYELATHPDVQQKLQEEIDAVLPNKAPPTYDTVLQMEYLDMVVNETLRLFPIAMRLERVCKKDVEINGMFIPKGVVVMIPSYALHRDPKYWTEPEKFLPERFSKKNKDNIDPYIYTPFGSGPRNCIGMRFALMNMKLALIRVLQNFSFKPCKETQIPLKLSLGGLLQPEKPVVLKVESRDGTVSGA
Chain of CYP2D6 (P10635 whole entry): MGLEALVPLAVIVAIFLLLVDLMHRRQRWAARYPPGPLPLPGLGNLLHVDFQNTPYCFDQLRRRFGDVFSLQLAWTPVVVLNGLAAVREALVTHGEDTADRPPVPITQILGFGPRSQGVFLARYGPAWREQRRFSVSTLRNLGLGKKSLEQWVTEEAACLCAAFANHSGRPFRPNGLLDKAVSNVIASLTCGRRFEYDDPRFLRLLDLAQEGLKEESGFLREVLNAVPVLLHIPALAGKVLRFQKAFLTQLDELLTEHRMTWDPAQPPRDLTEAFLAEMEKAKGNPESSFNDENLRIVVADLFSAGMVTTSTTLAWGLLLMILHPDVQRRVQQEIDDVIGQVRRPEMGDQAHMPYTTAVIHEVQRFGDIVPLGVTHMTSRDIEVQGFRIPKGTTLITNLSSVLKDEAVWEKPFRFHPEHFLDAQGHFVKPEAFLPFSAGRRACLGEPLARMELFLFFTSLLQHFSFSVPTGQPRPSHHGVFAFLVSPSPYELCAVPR

Structure (SMILES)	RLM ([1]; rat, microsomes, pH 7.4) [mL/min/kg]	IC50 ([2]; read-out: 1A2 IC50, Protocol 2) [µM]	% Remaining @ 2 h [3, 11] [%]	half-life at 1 μM ([3]; human, plasma, pH 7.4) [h]	IC50 [4] [µM]	Ki [4] [µM]	HLM ([5]; human, microsomes, pH 7.4) [mL/min/kg]	IC50 [6] [µM]	other results
O=C(OCC12CCN(CC1)CC2)c1c[nH]c2cccc(Cl)c12 [Compound 35, quinuclidin-4-ylmethyl 4-chloro-1H-indole-3-carboxylate]	183.6	> 10	56	> 2	0.0266	0.023	<13.608	> 10	
Cc1ccc2c(C(=O)OCC34CCN(CC3)CC4)c[nH]c2c1.Cl [Compound 45, Quinuclidin-4-ylmethyl 6-methyl-1H-indole-3-carboxylate hydrochloride]					0.0736	0.0631			RLM [1, 12]: 170.981 mL/min/kg; IC50 ([2]; read-out: 1A2 IC50, Protocol 1): > 10 µM; % Remaining @ 2 h [3, 13]: 47.32%; HLM [5, 14]: 2.976 mL/min/kg; IC50 ([7]; read-out: 2D6 IC50, Protocol 1): > 10 µM; IC50 [8, 15]: > 10 µM; IC50 [9, 16]: > 10 µM; IC50 [9, 17]: > 10 µM; IC50 ([10]; read-out: 2C9 IC50, Protocol 1): > 10 µM
O=C(OCC12CCN(CC1)CC2)c1c[nH]c2cc(O)cc(Br)c12 [Compound 53, quinuclidin-4-ylmethyl 4-bromo-6-hydroxy-1H-indole-3-carboxylate]					0.0536	0.046			RLM [1, 12]: 29.9085 mL/min/kg; IC50 ([2]; read-out: 1A2 IC50, Protocol 1): > 10 µM; % Remaining @ 2 h [3, 13]: 95.5%; HLM [5, 14]: 8.304 mL/min/kg; IC50 ([7]; read-out: 2D6 IC50, Protocol 1): > 10 µM; IC50 [8, 15]: > 10 µM; IC50 [9, 16]: > 10 µM; IC50 [9, 17]: > 10 µM; IC50 ([10]; read-out: 2C9 IC50, Protocol 1): > 10 µM
COc1cc2[nH]cc(C(=O)OCC34CCN(CC3)CC4)c2cc1F.Cl [Compound 32, Quinuclidin-4-ylmethyl 5-fluoro-6-methoxy-1H-indole-3-carboxylate hydrochloride]		> 10			0.306	0.267			RLM [1, 18]: 85.5 mL/min/kg; half-life at 1 μM [3, 19]: > 2 h; HLM [5, 20]: <13.608 mL/min/kg; IC50 ([7]; read-out: 2D6 IC50, Protocol 2): > 10 µM; IC50 [8, 21]: > 10 µM; IC50 [9, 22]: > 10 µM; IC50 ([10]; read-out: 2C9 IC50, Protocol 2): > 10 µM
Cl.O=C(OCC12CCN(CC1)CC2)c1c[nH]c2cc(F)c(F)cc12 [Compound 51, Quinuclidin-4-ylmethyl 5,6-difluoro-1H-indole-3-carboxylate hydrochloride]					0.662	0.568			RLM [1, 12]: 716.882 mL/min/kg; IC50 ([2]; read-out: 1A2 IC50, Protocol 1): > 10 µM; % Remaining @ 2 h [3, 13]: 79.3649%; HLM [5, 14]: 1.004 mL/min/kg; IC50 ([7]; read-out: 2D6 IC50, Protocol 1): > 10 µM; IC50 [8, 15]: > 10 µM; IC50 [9, 16]: > 10 µM; IC50 [9, 17]: > 10 µM; IC50 ([10]; read-out: 2C9 IC50, Protocol 1): > 10 µM
O=C(OCC12CCN(CC1)CC2)c1c[nH]c2cccc(Br)c12 [Compound 24, quinuclidin-4-ylmethyl 4-bromo-1H-indole-3-carboxylate]	175.569	> 10	89	> 2	0.0581	0.0504	<13.608	> 10	
O=C(OCC12CCN(CC1)CC2)c1c[nH]c2cc(O)ccc12 [Compound 14, quinuclidin-4-ylmethyl 6-hydroxy-1H-indole-3-carboxylate]	25.92	> 10	26	1.09	0.0619	0.0537	<13.608		IC50 ([7]; read-out: 2D6 IC50, Protocol 2): > 10 µM; IC50 [8, 21]: > 10 µM; IC50 ([10]; read-out: 2C9 IC50, Protocol 2): > 10 µM
O=C(OCC12CCN(CC1)CC2)c1c[nH]c2cccc(F)c12 [Compound 13, quinuclidin-4-ylmethyl 4-fluoro-1H-indole-3-carboxylate]	94.3866	> 10		0.25	0.0141	0.0122	<13.608	> 10	
O=C(OCC12CCN(CC1)CC2)c1c[nH]c2cc(Br)ccc12 [Compound 22, quinuclidin-4-ylmethyl 6-bromo-1H-indole-3-carboxylate]	49.5027	> 10	58	> 2	0.607	0.532	<13.608	> 10	
Cc1cccc2[nH]cc(C(=O)OCC34CCN(CC3)CC4)c12 [Compound 21, quinuclidin-4-ylmethyl 4-methyl-1H-indole-3-carboxylate]	379.107	> 10	83	> 2	0.0588	0.0509	<13.608	> 10	
COc1ccc2[nH]cc(C(=O)OCC34CCN(CC3)CC4)c2c1OC [Compound 40, quinuclidin-4-ylmethyl 4,5-dimethoxy-1H-indole-3-carboxylate]					0.0696	0.06			RLM ([1]; rat, microsomes): 49.42 mL/min/kg; IC50 ([2]; read-out: 1A2 IC50, Protocol 1): > 10 µM; T1/2 ([3]; human, plasma): ∞; % Remaining @ 2 h ([3]; human, plasma, 2 h, 5 μM): 106.8%; HLM ([5]; human, microsomes): 7.67 mL/min/kg; IC50 ([6]; 45 min): > 10 µM; IC50 [9, 16]: > 10 µM; IC50 [9, 17]: > 10 µM
Cl.O=C(OCC12CCN(CC1)CC2)c1c[nH]c2cc3c(cc12)OCCO3 [Compound 30, Quinuclidin-4-ylmethyl 2,3-dihydro-6H-[1,4]dioxino[2,3-f]indole-8-carboxylate hydrochloride]		> 10			0.0925	0.0811			RLM [1, 18]: 55.98 mL/min/kg; % Remaining @ 2 h ([3]; Protocol No. 1, human plasma, 1 μM, 37° C.): 10%; half-life at 1 μM [3, 19]: 0.578 h; HLM [5, 20]: <13.608 mL/min/kg; IC50 ([7]; read-out: 2D6 IC50, Protocol 2): > 10 µM; IC50 [8, 21]: > 10 µM; IC50 [9, 22]: > 10 µM; IC50 ([10]; read-out: 2C9 IC50, Protocol 2): > 10 µM
O=C(OCC12CCN(CC1)CC2)c1c[nH]c2ccc(Br)cc12 [Compound 23, quinuclidin-4-ylmethyl 5-bromo-1H-indole-3-carboxylate]	81.6815	> 10	21	0.882	0.424	0.374	<13.608	> 10	
Cl.O=C(OCC12CCN(CC1)CC2)c1c[nH]c2cc(OC(F)F)ccc12 [Compound 31, Quinuclidin-4-ylmethyl 6-(difluoromethoxy)-1H-indole-3-carboxylate hydrochloride]		> 10			0.788	0.689			RLM [1, 18]: 25.92 mL/min/kg; HLM [5, 20]: <13.608 mL/min/kg; IC50 ([7]; read-out: 2D6 IC50, Protocol 2): > 10 µM; IC50 [8, 21]: > 10 µM; IC50 [9, 22]: > 10 µM; IC50 ([10]; read-out: 2C9 IC50, Protocol 2): > 10 µM
COc1ccc2[nH]cc(C(=O)OCC34CCN(CC3)CC4)c2c1Cl [Compound 39, quinuclidin-4-ylmethyl 4-chloro-5-methoxy-1H-indole-3-carboxylate]					0.0239	0.0206			RLM ([1]; rat, microsomes): 262.35 mL/min/kg; IC50 ([2]; read-out: 1A2 IC50, Protocol 1): > 10 µM; % Remaining @ 2 h ([3]; human, plasma, 2 h, 5 μM): 14.05%; HLM ([5]; human, microsomes): 9.18 mL/min/kg; IC50 ([6]; 45 min): > 10 µM; IC50 [9, 16]: > 10 µM; IC50 [9, 17]: > 10 µM
O=C(OCC12CCN(CC1)CC2)c1c[nH]c2cc(Cl)ccc12 [Compound 26, quinuclidin-4-ylmethyl 6-chloro-1H-indole-3-carboxylate]	75.0501	> 10	65	> 2	0.451	0.398	<13.608	> 10	
Cl.O=C(OCC12CCN(CC1)CC2)c1c[nH]c2cc(OC(F)(F)F)ccc12 [Compound 29, Quinuclidin-4-ylmethyl 6-(trifluoromethoxy)-1H-indole-3-carboxylate hydrochloride]		> 10			3.71	3.24			RLM [1, 18]: 25.92 mL/min/kg; HLM [5, 20]: <13.608 mL/min/kg; IC50 ([7]; read-out: 2D6 IC50, Protocol 2): > 10 µM; IC50 [8, 21]: > 10 µM; IC50 [9, 22]: > 10 µM; IC50 ([10]; read-out: 2C9 IC50, Protocol 2): > 10 µM
O=C(OCC12CCN(CC1)CC2)c1c[nH]c2ccc(Cl)cc12 [Compound 27, quinuclidin-4-ylmethyl 5-chloro-1H-indole-3-carboxylate]	106.429	> 10			0.282	0.247	<13.608	> 10	

— patent publication US9434724B2, “Quinuclidines for modulating alpha 7 activity” (priority 2014, dated 2016)
